Data taken from ChEMBL document CHEMBL1143922, “Pharmacophore identification of Raf-1 kinase inhibitors” (Bioorg Med Chem Lett, 2008).

These compounds were tested against RAF proto-oncogene serine/threonine-protein kinase (Homo sapiens, UniProt P04049) (assay: Inhibition of Raf1 kinase).
Sequence of RAF proto-oncogene serine/threonine-protein kinase (P04049 whole entry): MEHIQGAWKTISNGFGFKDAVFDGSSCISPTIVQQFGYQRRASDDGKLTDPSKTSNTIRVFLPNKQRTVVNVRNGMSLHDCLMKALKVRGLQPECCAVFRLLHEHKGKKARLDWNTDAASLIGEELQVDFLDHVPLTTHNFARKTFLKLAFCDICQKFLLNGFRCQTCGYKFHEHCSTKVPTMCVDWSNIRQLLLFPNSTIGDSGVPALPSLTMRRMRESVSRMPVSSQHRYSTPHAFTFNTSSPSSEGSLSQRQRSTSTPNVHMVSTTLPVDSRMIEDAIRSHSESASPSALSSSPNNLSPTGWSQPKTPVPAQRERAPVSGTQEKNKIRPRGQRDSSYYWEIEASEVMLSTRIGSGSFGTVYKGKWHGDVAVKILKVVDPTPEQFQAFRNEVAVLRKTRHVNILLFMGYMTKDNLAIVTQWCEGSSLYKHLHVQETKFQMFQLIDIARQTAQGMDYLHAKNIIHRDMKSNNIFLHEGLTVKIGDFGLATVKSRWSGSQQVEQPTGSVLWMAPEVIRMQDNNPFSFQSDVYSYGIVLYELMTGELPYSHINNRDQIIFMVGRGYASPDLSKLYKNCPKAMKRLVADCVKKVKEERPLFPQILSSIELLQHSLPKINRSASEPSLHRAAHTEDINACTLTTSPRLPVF

| IC50 | SMILES |
| --- | --- |
| 0.251 µM | CNC(=O)c1cncc(/C=C/c2c(Cl)cccc2Cl)c1 [GW445014X] |
| 6.3 µM | CC(C)(C)c1cc(NC(=O)Nc2ccc(Oc3ccc(C(=O)O)cc3)cc2)no1 |
| 25 µM | COC(=O)c1nc(C(C)(C)C)sc1NC(=O)Nc1ccc(C)cc1 |
| 8.6 µM | CC(C)(C)c1nnc(NC(=O)Nc2ccc(Oc3ccncc3)cc2)s1 |
| 0.0014 µM | Oc1cc(-c2nc(-c3ccccc3)[nH]c2-c2ccncc2)ccc1Cl |
| 0.25 µM | CNC(=O)c1cncc(/C=C/c2c(C)cccc2C)c1 [GW445012X] |
| 6.3 µM | CC(C)(C)c1nnc(NC(=O)Nc2ccc(Oc3ccncc3)cc2)o1 |
| 0.63 µM | Cc1cc(-c2cccnc2)cc(C)c1/C=C/c1cncc(-c2nn[nH]n2)c1 |
| 0.1 µM | Cc1cc(-c2ccccn2)cc(C)c1/C=C/c1cncc(-c2nn[nH]n2)c1 |
| 0.158 µM | Cc1cc(O)cc(C)c1/C=C/c1cncc(C(N)=O)c1 [GW435821X] |
| 0.013 µM | NC(=O)c1cc(Oc2ccc(NC(=O)Nc3ccc(Cl)c(C(F)(F)F)c3)cc2)ccn1 |
| 3.5 µM | CN(c1ccncc1)c1ccc(NC(=O)Nc2cc(C(C)(C)C)on2)cc1 |
| 1 µM | Cc1cccc(C)c1/C=C/c1cncc(C#N)c1 |

| SMILES | IC50 |
| --- | --- |
| CNC(=O)Oc1cc(C)c(/C=C/c2cncc(C(=O)O)c2)c(C)c1 | 0.006 µM |
| CNC(=O)Oc1cc(C)c(/C=C/c2cncc(C#N)c2)c(C)c1 | 0.04 µM |
| CNC(=O)Oc1cc(C)c(/C=C/c2cncc(C(=O)NC)c2)c(C)c1 [GW432441X] | 0.01 µM |
| CNC(=O)Oc1cc(C)c(/C=C/c2cncc(C(N)=O)c2)c(C)c1 | 0.007 µM |
